Measured values published in patent US20050085463A1 (priority 2003, published 2005).

How the values were obtained:
α1 receptors = test: Ligand binding screen at 10 μM
α2 receptors = test: Ligand binding screen at 10 μM
D1 receptors = D1 receptors (Homo sapiens, UniProt P21728); test: Ligand binding screen at 10 μM
D25 receptors = D25 receptors (Homo sapiens, UniProt P14416); test: Ligand binding screen at 10 μM
M3 receptors = M3 receptors (Homo sapiens, UniProt P20309); test: Ligand binding screen at 10 μM
[1] = system: amphetamine-induced hyperactivity; test: Reversal of amphetamine-induced hyperactivity; format: in vivo, Non-Swiss Albino (NSA) mice; details: s.c. or p.o.
[2] = Brain-to-plasma ratio in rats; format: in vivo; details: male, Sprague-Dawley, rat, po, 10 mg/kg, brain-to-plasma ratio of NDMC
Protocol: The pharmacokinetics of clozapine and N-desmethylclozapine (NDMC) was evaluated in rats after intravenous (i.v.) and oral (p.o.) dosing. Cmax, Tmax and bioavailability after p.o. dosing and the volume of distribution (Vss), terminal plasma half-life (T1/2) and clearance (CLs) after i.v. dosing were determined. […] Animals were euthanised and brain and plasma samples obtained at 60 or 240 minutes post-dose, depending on study group. The levels of NDMC and clozapine were measured in each sample.
The pharmacokinetic study described above included an initial assessment of the distribution of NDMC into brain.

[3] = Serum levels during clozapine treatment of schizophrenic patients; format: in vivo, human
Protocol: The analysis was adjusted for baseline level of symptom severity, age, and dose, since dose was not fixed. […] Regarding co-treatment with anticholinergic agents, only two subjects in this sample were treated with benztropine. […] Lastly, ten of the patients in this study were treated with benzodiazepines at the time the levels of clozapine and NDMC were measured.
Patients were classified as treatment resistant or not by standard criteria (Kane et al 1988), and clinical ratings and neuropsychological test scores were obtained by trained raters who were blinded to plasma drug levels.

M1 muscarinic receptor = target: T1, M1 muscarinic receptor (Homo sapiens, UniProt P11229)
T1 sequence (P11229 1-460): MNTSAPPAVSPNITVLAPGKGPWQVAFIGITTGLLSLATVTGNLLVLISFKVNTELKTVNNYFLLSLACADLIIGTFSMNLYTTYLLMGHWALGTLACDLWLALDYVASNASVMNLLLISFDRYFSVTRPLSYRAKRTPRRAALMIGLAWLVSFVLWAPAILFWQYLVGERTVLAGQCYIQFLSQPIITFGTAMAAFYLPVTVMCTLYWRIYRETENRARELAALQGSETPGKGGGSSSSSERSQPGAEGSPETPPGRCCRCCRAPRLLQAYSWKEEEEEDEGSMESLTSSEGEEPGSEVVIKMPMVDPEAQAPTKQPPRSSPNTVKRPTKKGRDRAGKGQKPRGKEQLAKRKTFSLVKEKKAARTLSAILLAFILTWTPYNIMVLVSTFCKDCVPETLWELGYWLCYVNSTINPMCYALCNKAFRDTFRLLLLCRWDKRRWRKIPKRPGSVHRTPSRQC

[4] = target: T2, α1A (Alpha 1A) adrenergic receptor (Homo sapiens, UniProt P35348); test: cell-based
T2 sequence (P35348 1-466): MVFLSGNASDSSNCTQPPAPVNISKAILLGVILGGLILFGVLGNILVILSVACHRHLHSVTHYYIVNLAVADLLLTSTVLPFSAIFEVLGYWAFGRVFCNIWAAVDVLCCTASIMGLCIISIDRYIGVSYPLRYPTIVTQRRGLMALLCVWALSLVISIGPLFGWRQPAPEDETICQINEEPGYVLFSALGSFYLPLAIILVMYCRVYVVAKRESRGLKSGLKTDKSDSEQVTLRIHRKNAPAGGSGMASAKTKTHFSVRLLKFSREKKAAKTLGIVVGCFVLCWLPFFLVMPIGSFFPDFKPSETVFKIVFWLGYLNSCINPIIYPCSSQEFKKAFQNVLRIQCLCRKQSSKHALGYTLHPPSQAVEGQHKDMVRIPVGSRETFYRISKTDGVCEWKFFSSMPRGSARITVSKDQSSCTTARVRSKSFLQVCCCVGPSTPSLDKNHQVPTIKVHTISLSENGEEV

5-HT1A receptor = target: T3, 5-HT1A receptor (Homo sapiens, UniProt P08908); test: R-SAT competitive antagonist assay; details: R-SAT; nr = no significant antagonist or inverse agonist activity up to 1 μM; nr* = nr but significant agonist activity
T3 sequence (P08908 1-422): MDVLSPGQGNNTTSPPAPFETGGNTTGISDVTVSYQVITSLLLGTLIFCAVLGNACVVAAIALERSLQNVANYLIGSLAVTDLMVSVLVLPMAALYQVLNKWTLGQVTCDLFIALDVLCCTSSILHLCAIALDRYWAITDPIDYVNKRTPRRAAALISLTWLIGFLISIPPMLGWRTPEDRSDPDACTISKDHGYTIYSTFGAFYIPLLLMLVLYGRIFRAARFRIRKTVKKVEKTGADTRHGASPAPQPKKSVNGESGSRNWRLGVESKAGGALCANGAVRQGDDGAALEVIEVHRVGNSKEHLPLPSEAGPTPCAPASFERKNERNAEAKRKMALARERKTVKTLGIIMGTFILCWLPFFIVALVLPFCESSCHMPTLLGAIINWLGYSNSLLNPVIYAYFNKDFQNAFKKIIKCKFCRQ

[5] = clozapine-treated schizophrenics
[6] = clozapine-treated treatment resistant schizophrenics

Chain of M3 receptors (P20309 whole entry): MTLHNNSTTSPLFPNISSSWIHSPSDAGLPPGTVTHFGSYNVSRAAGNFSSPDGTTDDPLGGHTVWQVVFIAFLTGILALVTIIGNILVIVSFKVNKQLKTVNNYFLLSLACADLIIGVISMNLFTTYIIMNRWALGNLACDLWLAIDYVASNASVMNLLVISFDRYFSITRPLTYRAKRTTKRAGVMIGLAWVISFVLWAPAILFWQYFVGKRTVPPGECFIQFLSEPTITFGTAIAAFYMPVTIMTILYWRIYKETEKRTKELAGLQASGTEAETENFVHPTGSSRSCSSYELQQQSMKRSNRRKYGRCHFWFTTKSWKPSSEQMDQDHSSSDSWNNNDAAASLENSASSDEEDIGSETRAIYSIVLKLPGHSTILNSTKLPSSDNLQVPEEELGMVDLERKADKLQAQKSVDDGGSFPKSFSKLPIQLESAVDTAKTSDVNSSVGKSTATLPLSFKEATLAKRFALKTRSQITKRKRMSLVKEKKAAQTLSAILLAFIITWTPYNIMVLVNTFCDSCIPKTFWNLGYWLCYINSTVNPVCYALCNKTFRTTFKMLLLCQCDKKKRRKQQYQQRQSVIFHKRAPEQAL
Chain of D1 receptors (P21728 whole entry): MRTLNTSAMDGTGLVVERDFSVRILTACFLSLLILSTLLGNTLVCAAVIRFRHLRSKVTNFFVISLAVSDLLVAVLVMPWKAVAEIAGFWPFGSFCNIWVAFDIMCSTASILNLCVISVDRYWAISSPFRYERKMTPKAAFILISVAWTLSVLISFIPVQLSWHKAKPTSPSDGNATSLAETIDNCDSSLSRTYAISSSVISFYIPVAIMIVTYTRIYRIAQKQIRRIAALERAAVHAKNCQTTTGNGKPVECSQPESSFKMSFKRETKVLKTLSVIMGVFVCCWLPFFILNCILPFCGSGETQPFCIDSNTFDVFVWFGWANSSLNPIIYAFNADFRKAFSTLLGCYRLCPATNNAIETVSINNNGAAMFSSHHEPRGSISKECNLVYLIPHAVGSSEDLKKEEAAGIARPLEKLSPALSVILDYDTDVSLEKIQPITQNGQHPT
Chain of D25 receptors (P14416 1-414 isoform P14416-2): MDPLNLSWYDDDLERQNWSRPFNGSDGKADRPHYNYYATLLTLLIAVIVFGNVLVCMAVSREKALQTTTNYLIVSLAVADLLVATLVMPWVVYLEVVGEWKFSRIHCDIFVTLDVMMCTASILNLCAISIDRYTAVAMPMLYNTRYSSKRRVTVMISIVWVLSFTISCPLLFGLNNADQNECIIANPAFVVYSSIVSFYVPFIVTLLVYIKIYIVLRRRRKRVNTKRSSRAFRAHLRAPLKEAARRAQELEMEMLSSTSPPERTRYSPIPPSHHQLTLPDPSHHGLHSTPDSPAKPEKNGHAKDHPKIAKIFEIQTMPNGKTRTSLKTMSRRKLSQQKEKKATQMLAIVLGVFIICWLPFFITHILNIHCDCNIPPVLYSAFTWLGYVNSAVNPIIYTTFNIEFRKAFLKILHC

SMILES: Clc1ccc2c(c1)N=C(N1CCNCC1)c1ccccc1N2 [NDMC, 8-chloro-11-(1-piperazinyl)-5H-dibenzo [b,e][1,4] diazepine]
- inhibition of binding, α1 (α1 receptors): ≥ 90%
- inhibition of binding, α2 (α2 receptors): ≥ 90%
- inhibition at 10 µM (D1 receptors): ≥ 90%
- inhibition at 10 µM (D25 receptors): ≥ 90%
- inhibition at 10 µM (M3 receptors): ≥ 90%
- dose that attenuated amphetamine-induced hyperactivity [1]: 10 mg/kg
- Kp at 1 h ([2]; 60 minutes after oral 10 mg/kg NDMC): 0.36 ± 0.16
- Kp at 1 h ([2]; 60 minutes after oral clozapine): 0.26 ± 0.07
- Kp at 4 h ([2]; 240 minutes after oral 10 mg/kg NDMC): 1 ± 0.4
- Kp at 4 h ([2]; 240 minutes after oral clozapine): 2.6 ± 0.8
- Serum level, All Subjects at 6 Months (92) [3, 5]: 235 ± 190 ng/mL
- Serum level, All Subjects at 6 Weeks (86) [3, 5]: 194 ± 136 ng/mL
- Serum level, Non-Responders (25) [3, 6]: 171 ± 123 ng/mL
- Serum level, Responders (26) [3, 6]: 308 ± 243 ng/mL
- Serum level, All TR Subjects (59) ([3]; clozapine-treated treatment resistant schizophrenics, drawn 12 hours after last clozapine dose): 260 ± 203 ng/mL
- pKi, competitive antagonist (M1 muscarinic receptor; PI hydrolysis in the presence of 3-micromolar carbachol): no response
- M1 % Efficacy (M1 muscarinic receptor; PI hydrolysis, relative to carbachol, listed as N-desmethylclozapine): 65 ± 10%
- Ki [4]: 50.1 nM
- pKi 5-HT1A, competitive antagonist (5-HT1A receptor): nr and nr^1
